The results in this text go back to PubChem BioAssay (NCI).

Holding throughout (test): inhibition of tumour cell growth, NCI panel, 48 h
Assay [1] has as its system HCT-116 colon.
Assay [2] concerns HCT-15 colon.
In assay [3] the test system is HOP-62 NSCLC.
Assay [4] has as its system MDA-MB-231 breast.
Assay [5] relates to NCI-H522 lung.
Assay [6] relates to NCI/ADR-RES ovarian.
The test system of assay [7] is OVCAR-3 ovarian.
Assay [8] relates to RPMI-8226 leukemia.
The test system of assay [9] is SW-620 colon.
Assay [10] relates to UACC-62 melanoma.

SMILES strings stand for the structures.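 Five compound concentrations were applied to cells in 96-well plates for 48 hours; endpoints were derived by simple linear interpolation of the resulting dose-response curve. At the GI50, growth is halved. TGI denotes the concentration required for complete inhibition of growth.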

Take `CN(C)C=Nc1c(I)cc(I)c(CCC(=O)O)c1I`: the GI50 in assay [1], in [2], in assay [3], in assay [4], in assay [5] and in assay [6] was above 100 µM in each case. For the same molecule, the GI50 in assay [7], in [8], in [9] and in assay [10] was above 100 µM each time. Further, the TGI in assay [1], in [2], in [3], in assay [4], in assay [5] and in [6] was above 100 µM throughout. In addition, the TGI in [7], in [8], in [9] and in [10] was above 100 µM in each case.
As to `COc1ccc(-c2[nH]nc(N)c2-c2cc(OC)c(OC)c(OC)c2)cc1`, the GI50 in [1] is 0.0417 µM; in assay [2] it was 0.0345 µM; in [3], 0.0442 µM; in assay [4], 0.074 µM; in [5] it was below 0.0133 µM; in [6] it was 0.0283 µM. The GI50 was 0.0261 µM in assay [7], 0.0352 µM in assay [8], 0.0387 µM in [9] and 0.0672 µM in [10]. The TGI in assay [1] was 42.6 µM; in assay [2], above 100 µM; in assay [3], above 100 µM; in assay [4], above 100 µM; in assay [5], 0.62 µM; in assay [7] it was 0.853 µM. Besides, the values for the TGI in assay [8], in [9] and in assay [10] were 7.69 µM, above 100 µM and above 100 µM, respectively.
Regarding `COc1ccc(-c2cn(-c3cc(OC)c(OC)c(OC)c3)c(=O)[nH]2)cc1OC`, the GI50 in assay [1], in assay [2], in assay [3], in assay [4], in assay [5] and in [6] was above 100 µM in each case. For the same molecule, the GI50 in assay [7], in [8], in [9] and in assay [10] was above 100 µM in each case. Moreover, the TGI in [1], in assay [2], in assay [3], in assay [4], in [5] and in [6] was above 100 µM throughout. Moreover, the TGI in assay [7], in assay [8], in [9] and in assay [10] was above 100 µM in each case.
Regarding `CC(=O)N[C@@H](Cc1ccc(OP(=O)(O)O)cc1)C(=O)N[C@H]1CCC(=O)N2CCC[C@@H](C(=O)NCc3ccccc3)N2C1=O`, the GI50 in assay [1], in assay [2], in [3], in assay [4], in assay [5] and in assay [6] was above 25 µM each time. Also, the GI50 in [7], in assay [8], in [9] and in [10] was above 25 µM throughout. For the same molecule, the TGI in [1], in assay [2], in [3], in assay [4], in assay [5] and in [6] was above 25 µM in each case. In addition, the TGI in [7], in assay [8], in [9] and in assay [10] was above 25 µM in each case.
`N#CC1=C(N)Oc2c(sc3c(Br)cccc23)C1c1ccc(Cl)cc1` (centres undefined): the GI50 was 0.429 µM in assay [1]; 0.403 µM in [2]; 0.89 µM in [3]; 1.32 µM in assay [4]; 0.367 µM in assay [5]; 0.332 µM in [6]. The GI50 in assay [7] is 0.272 µM; in assay [8], 0.496 µM; in [9], 0.408 µM; in [10], 0.435 µM. The TGI came out at 1.79 µM in [1]; 2.25 µM in assay [2]; 6.42 µM in [3]; 4.69 µM in [4]; 2.43 µM in assay [5]; 1.35 µM in assay [6]. Besides, the TGI is 0.749 µM in [7], 9.25 µM in assay [8], above 100 µM in assay [9] and 8.35 µM in assay [10].
Regarding `COc1cc(CCNC(=O)OC(C)(C)C)c2c(c1OC)SSSSS2`, the GI50 in [1] is 5.51 µM; in assay [2], 2.45 µM; in assay [3], 3.71 µM; in assay [4], 2.58 µM; in assay [5] it was 2.1 µM; in assay [6] it was 3.64 µM. Also, the GI50 was 2.65 µM in assay [7], 2.11 µM in [8], 2.8 µM in assay [9] and 3.93 µM in [10]. Besides, the TGI was above 100 µM in [1]; 5.78 µM in [2]; 15.3 µM in [3]; 5.82 µM in assay [4]; 4.18 µM in assay [5]; 70.2 µM in [6]. Moreover, the TGI came to 5.51 µM in [7], 10.7 µM in [8], 7.69 µM in [9] and 15.5 µM in assay [10].
Regarding `CC(=O)OCCCC#CC#Cc1cccc(=O)o1`, the GI50 in assay [1] is 14.6 µM; in assay [2] it was 11.7 µM; in assay [3], 15.5 µM; in [4], 13.7 µM; in [5] it was 32.1 µM; in [6] it was 39.6 µM. Further, the GI50 was 2.89 µM in assay [7], 4.19 µM in assay [8], 13.6 µM in assay [9] and 14.6 µM in assay [10]. In addition, the TGI in [1] is 29.1 µM; in assay [2] it was 25.7 µM; in assay [3] it was 30.4 µM; in assay [4], 29 µM; in [5] it was above 100 µM; in assay [6], above 100 µM. Moreover, the TGI in assay [7] was 14.2 µM; in assay [8], 20.3 µM; in assay [9] it was 37.5 µM; in [10], 28.9 µM.
